# Data reported in patent US20110136911A1 (The Feinstein Institute for Medical Research, priority 2007, published 2011).
# Legend:
# [1] = tested on: cecal ligation and puncture (CLP) model of sepsis; test: Cecal ligation and puncture (CLP) model of sepsis; format: in vivo, mice
# Experimental: In anesthetized male Balb/C mice (ketamine 100 mg/kg and xylazine 8 mg/kg administered intramuscularly), abdominal access was gained via a midline incision. The cecum was isolated and ligated with a 6-0 silk ligature below the ileocecal valve, and the cecum punctured once with a 22 G needle, stool (approximately 1 mm^3) extruded from the hole, and the cecum placed back into the abdominal cavity. The abdomen was closed with two layers of 6-0 Ethilon sutures. Antibiotics were administered immediately after CLP (Premaxin 0.5 mg/kg, subcutaneously, in a total volume of 0.5 ml/mouse) and a single dose of resuscitative fluid (normal saline solution) was administered subcutaneously (20 ml/kg-body weight) immediately after CLP. […] Additionally, two injections were given on day 2 and day 3.
# The cecal ligation and puncture experiment was repeated in a second group of animals. The experimental procedure was identical to that used in the preceding example.
# [2] = tested on: leukocyte recruitment into air pouch; test: Air pouch model of acute inflammation (carrageenan); format: in vivo, mice; conditions: 4 mg/kg i.p. 15 min before 1% carrageenan, exudate after five hours
# Experimental: Air pouches were produced according to standard procedures (Garcia-Ramallo et al., 2002) using C57bk6 mice (wild-type) or strain-matched mice lacking both copies of the MIF gene (MIF−/−) by injecting sterile air s.c. on day 0 (6 ml) and day 3 (3 ml). […] 15 min. later the animals were challenged by injecting 1 ml 1% carrageenan (in PBS) into the air pouch cavity. Five hours after carrageenan injection the animals were sacrificed, the pouches washed with PBS, exudates collected, and the total number of infiltrating cells quantitated.
# [3] = tested on: LPS-stimulated RAW 267.4 cells; test: TNF secretion from LPS-stimulated RAW macrophages (ELISA); format: cell-based; conditions: 0.1 μg/ml LPS
# Experimental: After 16 h, cell culture supernatants were collected for determination of TNF concentration by enzyme-linked immunosorbent assay (R & D Systems).
# [4] = cited from earlier work
smiles,measurement,setting,value
"N[C@H](Cc1cc(I)c(Oc2cc(I)c(O)c(I)c2)c(I)c1)C(=O)O [D-T4, dextrothyroxine]",survival,"[1]; male Balb/C mice, 4 mg/kg i.p. 24 hours after CLP, further injections on day 2 and day 3, n=10, vehicle 2/10",6/10
same,"survival, repeat experiment in a second group of animals","[1]; procedure identical to the first CLP experiment, FIG. 4",dramatically increases survival
same,"leukocyte recruitment (number of infiltrating cells), wild-type mice","[2]; C57bk6 wild-type, p<0.04 relative to vehicle",inhibits leukocyte recruitment
same,"leukocyte recruitment (number of infiltrating cells), MIF knockout mice","[2]; MIF−/− mice, n.s.",not in MIF knockout animals
same,IC50,"[3]; RAW267.4, 30 minutes preincubation, supernatants after 16 h, read-out: IC50, inhibition of the release of TNFα",1000 nM
"N[C@@H](Cc1cc(I)c(Oc2cc(I)c(O)c(I)c2)c(I)c1)C(=O)O [L-T4, L-thyroxine]",free (unbound) hormone as percentage of the total hormone in plasma,[4],about 0.03%
same,inhibitory effect on TNF release compared with ISO-1,"[3]; 0.01-50 μM, 16 h",more potent than ISO-1
